Assay results as given in US10899759B2, “Positive allosteric modulators of the muscarinic acetylcholine receptor M1” (Vanderbilt University, priority 2016, dated 2021).

Tests used:
[1] = Brain tissue distribution study in Sprague-Dawley rat (IV cassette); assay type: in vivo; settings: male, IV cassette 0.2 mg/kg per compound, 0.25 h post-dose; for Kp uu at 0.25 h: brain/plasma (unbound), unbound distribution partition coefficient; for Kp at 0.25 h: brain/plasma, distribution partition coefficient
Procedure: The plasma protein and nonspecific brain homogenate binding of certain compounds were determined in plasma or brain homogenate using contemporary equilibrium dialysis and employing HTDialysis™ Teflon dialysis chambers and cellulose membranes (MWCO 12-14 K) from HTDialysis (Gales Ferry, Conn.). Brain tissue homogenate was prepared by diluting one volume whole brain tissue with three volumes of phosphate buffer (pH 7.4). The mixture was then subjected to mechanical homogenation employing a Mini-Beadbeater™ and 1.0 mm Zirconia/Silica Beads from BioSpec Products (Bartlesville, Okla.). Plasma or brain homogenate was fortified with test article and mixed thoroughly for a final concentration of 5 μM for plasma and 1 μM for brain homogenate. Subsequently, 100 μL of the plasma- or brain homogenate-compound mixture was transferred to one side of a dialysis chamber with an accompanying 100 μL of phosphate buffer (pH 7.4) in the opposite side of the chamber. The plate block was sealed and incubated for 6 hours (37° C.) with shaking. Upon completion, aliquots from each chamber were matrix-matched with either plasma or brain homogenate (1:1, buffer side) or buffer (1:1, plasma or brain homogenate side) in a new 96-well plate, at which time the proteins and cell debris/membranes (for brain homogenate) were precipitated with ice-cold acetonitrile containing an internal standard (carbamazepine, 50 nM). The plate was centrifuged (3000 rcf, 10 min) and supernatants diluted (1:1, v/v) via transfer into a fresh 96-well plate containing deionized H2O; the plate was sealed in preparation for LC/MS/MS bioanalysis. The assay was performed in triplicate for each compound.
A cassette of compounds (n=5/cassette) were formulated from 10 mmol L^−1 solutions prepared in DMSO. In order to reduce the absolute volume of DMSO that was administered, the compounds were combined and diluted with ethanol and PEG 400 to achieve a final concentration of 0.4 mg mL^−1 for each compound (2 mg mL^−1 total) administered in each cassette; the maximal dosing volume was 0.5 mL kg^−1 of each animal's body mass. The final dosing solutions consisted of approximately 10% ethanol, 40% PEG400, and 50% DMSO (v/v). Each cassette dose was administered IV via the jugular vein to one dual-cannulated (carotid artery and jugular vein) adult male Sprague-Dawley rat, each weighing between 250 and 350 g (Harlan, Indianapolis, Ind.) for a final dose of 0.2 mg kg^−1 per compound. Whole blood and dissected whole brains were collected at the time of euthanization (0.25 h post-dose), with the whole brain being removed and thoroughly rinsed with cold phosphate-buffered saline prior to freezing on dry ice. […]

human mAChR M1 = molecular target: T1, human mAChR M1 (Homo sapiens, UniProt P11229); experiment: mAChR M1 cell-based functional assay (calcium mobilization, Fluo-4, FDSS); settings: CHO-K1 cells stably expressing hM1; for Emax: EC20 acetylcholine response, read-out: Human M1 Emax; for EC50: positive allosteric modulator activity as increase in the EC20 acetylcholine response
T1 construct: host or cells: CHO-K1
T1 sequence (P11229 1-460): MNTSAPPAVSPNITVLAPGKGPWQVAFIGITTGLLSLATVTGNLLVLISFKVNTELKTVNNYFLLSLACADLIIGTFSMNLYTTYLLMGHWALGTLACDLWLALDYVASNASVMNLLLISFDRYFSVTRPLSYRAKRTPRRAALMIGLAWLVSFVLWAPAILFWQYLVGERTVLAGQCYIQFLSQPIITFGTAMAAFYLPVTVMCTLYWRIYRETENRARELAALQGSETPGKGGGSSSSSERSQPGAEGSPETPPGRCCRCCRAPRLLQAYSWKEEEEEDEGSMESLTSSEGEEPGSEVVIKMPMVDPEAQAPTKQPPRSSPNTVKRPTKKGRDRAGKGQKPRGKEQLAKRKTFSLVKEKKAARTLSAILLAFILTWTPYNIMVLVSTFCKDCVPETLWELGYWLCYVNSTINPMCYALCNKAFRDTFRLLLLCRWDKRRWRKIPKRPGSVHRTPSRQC
Outline: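 CHO-K1 cells stably expressing muscarinic receptor, loaded with Fluo-4; 11-point 1:3 compound series added and calcium flux read over 300 s at 1 Hz. Agonism from direct calcium rise, PAM activity as potentiation of EC20 acetylcholine, antagonism as decrease of EC80 acetylcholine; four-parameter logistic fits.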

C57Bl/6 mice = experiment: Behavioral manifestations of seizure activity (modified Racine scoring); assay type: in vivo; settings: 100 mg/kg i.p., monitored up to 3 hr for seizure behavior
Procedure: To evaluate induction of behavioral manifestation of seizure activity, C57Bl/6 mice received administration of vehicle or 100 mg/kg M1 PAM. Compounds were formulated in 10% Tween 80 (pH 7.0) at a concentration of 10 mg/ml and injected i.p. (n=3). Animals were monitored continuously and scored for behavioral manifestations of seizure activity at 5, 10, 15 and 30 min, and 1 and 3 hr. Behavioral manifestations of seizures were scored using a modified Racine scoring system (R. J. Racine, Modification of seizure activity by electrical stimulation. II. Motor seizure. Electroencephalogr. Clin. Neurophysiol. 32, 281 (March, 1972)). Briefly, a score of 0 represents no behavior alterations; score 1, immobility, mouth and facial movements, or facial clonus; score 2, head nodding, tail extension; score 3, forelimb clonus, repetitive movements; score 4, rearing and tonic clonic seizure; and score 5, continuous rearing and falling, severe generalized tonic clonic seizure.

| Compound | Kp uu at 0.25 h [1] | Kp at 0.25 h [1] | Emax (human mAChR M1) [%] | EC50 (human mAChR M1) [nM] | Adverse Effect in mice (100 mpk, i.p.) (C57Bl/6 mice) |
| --- | --- | --- | --- | --- | --- |
| Cn1cc(-c2ccc(Cc3cc(C(=O)NC4CCOCC4)nc4c3ccn4C)cn2)cn1 [Compound 47, 1-methyl-4-[[6-(1-methylpyrazol-4-yl)-3-pyridyl]methyl]-N-tetrahydropyran-4-yl-pyrrolo[2,3-b]pyridine-6-carboxamide] | 0.32 | 0.28 | 83.8 | 180 | No |
| Cc1nc(-c2ccc(Cc3cc(C(=O)NC4CCOCC4)nc4c3ccn4C)cc2)co1 [Compound 53, 1-methyl-4-[[4-(2-methyloxazol-4-yl)phenyl]methyl]-N-tetrahydropyran-4-yl-pyrrolo[2,3-b]pyridine-6-carboxamide] | 0.85 | 0.51 | 86.4 | 390 | No |
| Cn1ccc(-c2ccc(Cc3cc(C(=O)N[C@H]4CCCC[C@@H]4O)nc4c3ccn4C)cn2)n1 [Compound 155, N-[(1S,2S)-2-hydroxycyclohexyl]-1-methyl-4-[[6-(1-methylpyrazol-3-yl)-3-pyridyl]methyl]pyrrolo[2,3-b]pyridine-6-carboxamide] |  |  | 65.7 | 110 |  |
| Cn1ccc(-c2ccc(Cc3cc(C(=O)N[C@H]4CC[C@@H]4O)nc4c3ccn4C)cn2)n1 [Compound 156, N-[(1S,2S)-2-hydroxycyclobutyl]-1-methyl-4-[[6-(1-methylpyrazol-3-yl)-3-pyridyl]methyl]pyrrolo[2,3-b]pyridine-6-carboxamide] |  |  | 74.2 | 920 |  |
| CC(NC(=O)c1cc(Cc2ccc(-c3ccn(C)n3)nc2)c2ccn(C)c2n1)C1CCCO1 (stereo not drawn) [Compound 157, 1-methyl-4-[[6-(1-methylpyrazol-3-yl)-3-pyridyl]methyl]-N-(1-tetrahydrofuran-2-ylethyl)pyrrolo[2,3-b]pyridine-6-carboxamide] |  |  | 72.7 | 1270 |  |
| Cn1ccc(-c2ccc(Cc3cc(C(=O)NC[C@@H]4CCCO4)nc4c3ccn4C)cn2)n1 [Compound 158, 1-methyl-4-[[6-(1-methylpyrazol-3-yl)-3-pyridyl]methyl]-N-[[(2S)-tetrahydrofuran-2-yl]methyl]pyrrolo[2,3-b]pyridine-6-carboxamide] |  |  | 72.1 | 360 |  |
